Data taken from patent US20090234019A1, “T Type Calcium Channel Inhibitors” (priority 2004, published 2009).

How the values were obtained:
[1] = tested on: Jurkat cells; assay: Inhibition of calcium entry into Jurkat cells (indo-1 fluorescence); assay type: cell-based, human
Protocol: Cells were incubated in growth media containing 1 uM of the acetoxy-methyl ester of the Ca2+-sensitive fluorescent dye indo-1 (indo-1/AM; Molecular Probes, Eugene, Oreg.) for 1 h at 37° C. Cells were washed three times in buffer A [10 mM HEPES (pH 7.4), 1 mM MgCl2, 3 mM KCl, 1 mM CaCl2, 140 mM NaCl, 0.1% glucose, and 1% fetal bovine serum] and suspended to a final concentration of 10^6 cells/ml. Before stimulation, cells were warmed to 37° C. Changes in [Ca2+]i were monitored in an SLM […] spectrofluorimeter (SLM/Aminco; Urbana, Ill.) using previously published methods ([…]., Szabo, G., and Gray, L. S. 1996. A voltage operable current is involved in activation-induced Ca^2+ entry in human lymphocytes whereas ICRAC has no apparent role. Am. J. Physiol. 271:[…]., and Gray, L. S. 1998. Calmodulin regulation of Ca^2+ entry in Jurkat T cells. Cell Calcium 23:361-368).

[2] = tested on: Jurkat cells; assay: Inhibition of proliferation of Jurkat cells; assay type: cell-based, human
Protocol: (§1) Cancer cell lines were obtained from the American Type Culture Collection (Manassas, Va.). Cell lines were maintained in RPMI1640 supplemented with glutamine and 5% fetal bovine serum containing SerXtend (Irvine Scientific) when appropriate insulin, as directed by the ATCC. The fetal bovine serum used for culture was heat-inactivated by maintaining the serum at 56° C. for 1 h. Cell lines used were a T celleukemia (Jurkat), prostate cancer (PC3, DU145, LNCAP), breast cancer (MDA468, MDA361, MCF7), pancreatic cancer (MIA PaCa2), liver cancer (Hep G2), lung cancer (A549, NCl H460), colon cancer (HT29, HCT 116), and ovarian cancer (SK-OV-3).
(§2) LNCaP cells at 2.5×10^4 cells/well or PC-3 cells at 5×10^4 cells/well, both in a final volume of […], were plated in triplicate in standard flat-bottomed 96-well tissue culture plates in the presence of drug or vehicle (DMSO). Unless otherwise indicated, cells were grown for 48 h at 37° C. in a CO2 incubator. Relative cell growth was determined with the CellTiter 96 aqueous cell proliferation assay (Promega, Madison, Wis.) as described by the manufacturer using an automated plate reader. Results were calculated in a blinded fashion and are the means of triplicate determinations.

[3] = tested on: MDA-231 cells; assay: Inhibition of proliferation of MDA-231 cells; assay type: cell-based; conditions: Homo sapiens, MDA-MB-231, NE = no effect at highest concentration of drug tested, read-out: prolif: IC50 for inhibition of proliferation, MDA-231
[4] = tested on: MDA-435 cells; assay: Inhibition of calcium entry into MDA-435 cells; assay type: cell-based; conditions: MDA435, NE = no effect at highest concentration of drug tested, read-out: Ca2+: IC50 for inhibition of calcium entry, MDA-435
Protocol: (§3) Cells were incubated in growth media containing 1 uM of the acetoxy-methyl ester of the Ca2+-sensitive fluorescent dye indo-1 (indo-1/AM; Molecular Probes, Eugene, Oreg.) for 1 h at 37° C. Cells were washed three times in buffer A [10 mM HEPES (pH 7.4), 1 mM MgCl2, 3 mM KCl, 1 mM CaCl2, 140 mM NaCl, 0.1% glucose, and 1% fetal bovine serum] and suspended to a final concentration of 10^6 cells/ml. Before stimulation, cells were warmed to 37° C. Changes in [Ca2+]i were monitored in an SLM 8100C spectrofluorimeter (SLM/Aminco; Urbana, Ill.) using previously published methods (Densmore, J. J., Haverstick, D. M., Szabo, G., and Gray, L. S. 1996. A voltage operable current is involved in activation-induced Ca^2+ entry in human lymphocytes whereas ICRAC has no apparent role. Am. J. Physiol. 271:C1494-C1503; Haverstick, D. M., Densmore, J. J., and Gray, L. S. 1998. Calmodulin regulation of Ca^2+ entry in Jurkat T cells. Cell Calcium 23:361-368).

[5] = tested on: MDA-435 cells; assay: Inhibition of proliferation of MDA-435 cells; assay type: cell-based; conditions: MDA435, NE = no effect at highest concentration of drug tested, read-out: prolif: IC50 for inhibition of proliferation, MDA-435
[6] = tested on: MDA-231 cells; assay: Inhibition of calcium entry into MDA-231 cells; assay type: cell-based; conditions: Homo sapiens, MDA-MB-231, NE = no effect at highest concentration of drug tested, read-out: Ca2+: IC50 for inhibition of calcium entry, MDA-231
Protocol: as §3

[7] = tested on: PC3 cells; assay: Inhibition of proliferation of PC3 cells; assay type: cell-based, human; conditions: Homo sapiens, PC-3; PC3; NE = no effect at highest concentration of drug tested; read-out: prolif: IC50 for inhibition of proliferation, PC3
Protocol: as §1, §2

[8] = tested on: LNCaP cells; assay: Inhibition of calcium entry into LNCaP cells; assay type: cell-based; conditions: Homo sapiens, NE = no effect at highest concentration of drug tested, read-out: Ca2+: IC50 for inhibition of calcium entry, LNCaP
Protocol: as §3

[9] = tested on: LNCaP cells; assay: Inhibition of proliferation of LNCaP cells; assay type: cell-based; conditions: Homo sapiens, NE = no effect at highest concentration of drug tested, read-out: prolif: IC50 for inhibition of proliferation, LNCaP
Protocol: as §1, §2

[10] = tested on: MDA-361 cells; assay: Inhibition of calcium entry into MDA-361 cells; assay type: cell-based; conditions: MDA361, NE = no effect at highest concentration of drug tested, read-out: Ca2+: IC50 for inhibition of calcium entry, MDA-361
Protocol: as §3

[11] = tested on: MDA-361 cells; assay: Inhibition of proliferation of MDA-361 cells; assay type: cell-based; conditions: MDA361, NE = no effect at highest concentration of drug tested, read-out: prolif: IC50 for inhibition of proliferation, MDA-361
Protocol: as §1, §2

[12] = Jurkat cell line, Tables 1 and 2, unit inferred, read-out: IC50 for inhibition of Ca^2+ entry
[13] = Jurkat cell line, Tables 1 and 2, unit inferred, read-out: IC50 for inhibition of proliferation
[14] = Homo sapiens, Jurkat cell line, Tables 1 and 2, unit inferred, read-out: IC50 for inhibition of Ca^2+ entry
[15] = Homo sapiens, Jurkat cell line, Tables 1 and 2, unit inferred, read-out: IC50 for inhibition of proliferation
[16] = Homo sapiens, Jurkat, NE = no effect at highest concentration of drug tested, read-out: Ca2+: IC50 for inhibition of calcium entry, Jurkat
[17] = Homo sapiens, Jurkat, NE = no effect at highest concentration of drug tested, read-out: prolif: IC50 for inhibition of proliferation, Jurkat

COCCOC(=O)C1=C(C)NC(C)=C(C(=O)OC(C)C)C1c1cccc([N+](=O)[O-])c1 (stereo not shown) [Nimpodipine]
IC50 [1, 12]: > 100 µM
IC50 [2, 13]: > 100 µM

C[C@H](CCC(=O)O)C[C@H](C)C[C@H](C)C(=O)/C=C(\O)[C@H](C)C[C@H](C)C/C=C/[C@@H](C)[C@@H](O)[C@@H](C)[C@@H](O)C[C@@H]1CC[C@@](C)([C@H]2CC[C@@](C)([C@@H](C)O)O2)O1 [ionomycin]
effect on proliferation of ionomycin alone ([2]; 30 nM ionomycin alone, Jurkat): no effect

CC(CN1c2ccccc2Sc2ccccc21)N(C)C (stereo not shown) [Promethazine]
IC50 [1, 14]: 60 µM
IC50 [2, 15]: 4 µM

Prenylamine lactate
IC50 [1, 12]: 10 µM
IC50 [2, 13]: 10 µM

O=c1[nH]c2ccccc2n1C1CCN(CCCC(c2ccc(F)cc2)c2ccc(F)cc2)CC1 [Pimozide]
IC50 [1, 14]: > 100 µM
IC50 [2, 15]: > 100 µM

COc1ccc2c(c1)N(C[C@H](C)CN(C)C)c1ccccc1S2 [Methotrimeprazine]
IC50 [1, 14]: 10 µM
IC50 [2, 15]: 30 µM

COc1ccc(NCCCCCCC(c2ccccc2)c2ccc(Cl)cc2)cc1 (stereo not shown) [Compound 3.17]
IC50 [3]: > 100 µM
IC50 [4]: 30 µM
IC50 [1, 16]: 30 µM
IC50 [5]: > 100 µM
IC50 [6]: 30 µM
IC50 [2, 17]: > 100 µM
IC50 [7]: > 100 µM
IC50 [8]: 30 µM
IC50 [9]: > 100 µM

Cc1cccc(CN2CCN(C(c3ccccc3)c3ccc(Cl)cc3)CC2)c1 (stereo not shown) [Meclizine]
IC50 [1, 14]: 30 µM
IC50 [2, 15]: 30 µM

COc1ccc(CCCNCCCC(c2ccccc2)c2ccc(Cl)cc2)cc1 (stereo not shown) [Compound 3.3]
IC50 [3]: > 100 µM
IC50 [1, 16]: 60 µM
IC50 [5]: > 100 µM
IC50 [6]: 100 µM
IC50 [2, 17]: 70 µM
IC50 [7]: > 100 µM
IC50 [9]: 42 µM

CCN(CC)C(C)CN1c2ccccc2Sc2ccccc21 (stereo not shown) [Ethopropazine]
IC50 [1, 14]: 10 µM
IC50 [2, 15]: 30 µM

CN(C)CCCN1c2ccccc2Sc2ccccc21 [Promazine]
IC50 [1, 14]: 10 µM
IC50 [2, 15]: 30 µM

COC(=O)C1=C(C)NC(C)=C(C(=O)OCCN(C)Cc2ccccc2)C1c1cccc([N+](=O)[O-])c1 (stereo not shown) [Nicardipine]
IC50 [1, 14]: 10 µM
IC50 [2, 15]: 30 µM

COc1ccc(CNCc2ccccc2COC(c2ccccc2)c2ccc(Cl)cc2)cc1 (stereo not shown) [Compound 3.11]
IC50 [3]: 11.6 µM
IC50 [1, 16]: 3.3 µM
IC50 [10]: 10 µM
IC50 [5]: 22 µM
IC50 [11]: 8.5 µM
IC50 [6]: 20 µM
IC50 [2, 17]: 5.4 µM
IC50 [7]: 14 µM
IC50 [9]: 3.3 µM

COC(=O)C1=C(C)NC(C)=C(C(=O)OC(C)C)C1c1cccc2nonc12 (stereo not shown) [Isradipine]
IC50 [1, 14]: 10 µM
IC50 [2, 15]: 100 µM

COc1ccc(CCNCCCCC(c2ccccc2)c2ccc(Cl)cc2)cc1 (stereo not shown) [Compound 3.19]
IC50 [3]: 6 µM
IC50 [4]: 10 µM
IC50 [1, 16]: 10 µM
IC50 [5]: 11 µM
IC50 [6]: 10 µM
IC50 [2, 17]: 4 µM
IC50 [7]: 10 µM
IC50 [8]: 10 µM
IC50 [9]: 3 µM
